US9670195B2, “Glycosidase inhibitors and uses thereof” (Alectos Therapeutics Inc., priority 2012, dated 2017)

These compounds were tested against human O-GlcNAcase (Homo sapiens (Human), UniProt O60502) (assay: Assay for determination of KI values for inhibition of O-GlcNAcase activity (fluorescence-based)). Settings: purified human O-GlcNAcase, 4-Methylumbelliferyl N-acetyl-β-D-glucosaminide substrate, pH 7.0, Cheng-Prusoff; read-out: Fluorescence-based hOGA Ki.
Assay type: biochemical
Description: Assay for Determination of KI Values for Inhibition of O-GlcNAcase Activity
Experimental Procedure for Kinetic Analyses:
Enzymatic reactions are carried out in a reaction containing 50 mM NaH2PO4, 100 mM NaCl and 0.1% BSA (pH 7.0) using 2 mM 4-Methylumbelliferyl N-acetyl-β-D-glucosaminide dihydrate (Sigma M2133) dissolved in ddH2O, as a substrate. The amount of purified human O-GlcNAcase enzyme used in the reaction is 0.7 nM. Test compound of varying concentrations is added to the enzyme prior to initiation of the reaction. The reaction is performed at room temperature in a 96-well plate and is initiated with the addition of substrate. The production of fluorescent product is measured every 60 sec for 45 min with a Tecan Infinite M200 plate-reader with excitation at 355 nm and emission detected at […], with 4-Methylumbelliferone (Sigma M1381) used to produce a standard curve. The slope of product production is determined for each concentration of compound tested and plotted, using standard curve fitting algorithms for sigmoidal dose response curves. The values for a four parameter logistic curve fit of the data are determined.
KI values are determined using the Cheng-Prusoff equation; the Km of O-GlcNAcase for substrate is 0.2 mM.

Sequence of human O-GlcNAcase (O60502 whole entry): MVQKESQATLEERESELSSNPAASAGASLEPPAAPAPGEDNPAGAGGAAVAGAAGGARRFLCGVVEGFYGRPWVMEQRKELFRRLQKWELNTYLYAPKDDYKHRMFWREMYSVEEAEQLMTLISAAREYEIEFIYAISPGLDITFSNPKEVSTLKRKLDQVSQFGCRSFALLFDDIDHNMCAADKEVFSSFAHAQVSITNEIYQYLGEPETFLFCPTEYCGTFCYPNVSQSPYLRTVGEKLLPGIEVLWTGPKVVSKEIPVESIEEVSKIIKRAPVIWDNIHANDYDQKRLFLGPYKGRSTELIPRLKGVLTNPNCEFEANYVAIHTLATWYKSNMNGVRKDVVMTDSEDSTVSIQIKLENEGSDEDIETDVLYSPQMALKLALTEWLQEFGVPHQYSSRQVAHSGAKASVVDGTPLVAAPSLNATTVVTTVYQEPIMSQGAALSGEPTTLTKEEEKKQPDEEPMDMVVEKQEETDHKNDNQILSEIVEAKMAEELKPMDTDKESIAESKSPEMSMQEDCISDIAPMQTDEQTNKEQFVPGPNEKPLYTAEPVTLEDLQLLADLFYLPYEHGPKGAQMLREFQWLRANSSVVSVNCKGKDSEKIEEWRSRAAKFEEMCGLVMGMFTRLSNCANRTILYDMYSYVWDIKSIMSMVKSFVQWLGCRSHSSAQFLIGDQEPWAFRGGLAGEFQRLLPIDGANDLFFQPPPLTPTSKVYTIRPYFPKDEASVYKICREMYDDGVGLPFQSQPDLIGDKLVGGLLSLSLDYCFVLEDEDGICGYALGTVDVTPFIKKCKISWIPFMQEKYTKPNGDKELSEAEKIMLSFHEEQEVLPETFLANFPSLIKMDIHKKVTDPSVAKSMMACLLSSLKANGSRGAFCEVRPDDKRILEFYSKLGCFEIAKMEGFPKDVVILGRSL

Row | Ki [µM] | SMILES
1 | 15 | CCCCN1C[C@H](NC(C)=O)[C@@H](O)[C@@H]1CO
2 | 5.9 | CC(=O)N[C@H]1CN[C@@H](CO)[C@@H]1O
3 | 16.5 | CC(=O)N[C@H]1CN(CCCc2ccccc2)[C@@H](CO)[C@@H]1O [Example 1, N-((3S,4R,5S)-4-hydroxy-5-(hydroxymethyl)-1-(3-phenylpropyl)pyrrolidin-3-yl)acetamide]
